The values below come from PubChem BioAssay (NCI).

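Grown in 96-well plates, cells were treated for 48 hours with each compound at five concentrations. Insufficient inhibition: endpoint recorded as highest concentration tested. Abbreviation: GI50, concentration required for 50% inhibition of growth. TGI: concentration producing complete growth inhibition.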 Some results are limits rather than exact numbers.

What all share (assay): NCI-60 cell line screen, 48 h
Assay [1] relates to HOP-62 NSCLC.
Assay [2] concerns OVCAR-8 ovarian.
In assay [3] the test system is HL-60(TB) leukemia.
Assay [4] relates to SR leukemia.
Assay [5] relates to M14 melanoma.
For assay [6], the system named is OVCAR-3 ovarian.
The subject of assay [7] is UO-31 renal.
Assay [8] has as its system NCI/ADR-RES ovarian.
The subject of assay [9] is NCI-H23 lung.
The test system of assay [10] is SK-OV-3 ovarian.

Regarding `OCc1ncc(-c2ccccc2)s1`, the GI50 in assay [1], in assay [2], in assay [3], in assay [4], in assay [5] and in assay [6] was > 100 µM throughout. Further, the GI50 in assay [7], in assay [8], in [9] and in assay [10] was > 100 µM in each case. The TGI in assay [1], in [2], in assay [3], in [4], in [5] and in [6] was > 100 µM throughout. The TGI in [7], in assay [8], in assay [9] and in [10] was > 100 µM each time.
For the compound `Cc1ccc(S(=O)(=O)NNC(C[N+](=O)[O-])c2ccccc2)cc1` (centres undefined), the TGI is 74.5 µM in assay [1]; 46.1 µM in [2]; 21.9 µM in [3]; 5.56 µM in assay [4]; > 100 µM in assay [5]; 79.4 µM in assay [6]. In addition, the TGI in [7] was 48.6 µM; in [8] it was > 100 µM; in [9], > 100 µM; in assay [10], 46.3 µM.
Turning to `O=C(c1ccccc1)c1ccc(O)c2ncccc12`, the GI50 in assay [1] was 5.31 µM; in assay [2] it was 4.08 µM; in assay [3], 2.09 µM; in assay [4], 1.15 µM; in assay [5] it was 2.7 µM; in assay [6], 2.1 µM. Moreover, the GI50 was 1.28 µM in [7], 0.428 µM in [8], 4.85 µM in assay [9] and 6.02 µM in assay [10]. Besides, the TGI in assay [1] is 48.6 µM; in assay [2], 41 µM; in [3], 8.82 µM; in assay [4] it was > 100 µM; in assay [5], 19.5 µM; in assay [6], 6.99 µM. For the same compound, the TGI stood at 13.5 µM in [7], 6.03 µM in [8], 19.6 µM in assay [9] and 19.1 µM in assay [10].
`CN(C)CCCN1c2ccc(O)cc2Sc2ccc(Cl)cc21`: the TGI in [1] amounted to 29.5 µM; in [2] it was 30.5 µM; in [3], 30.8 µM; in assay [4] it was 15.8 µM; in [5], 19.7 µM; in assay [6] it was 24.5 µM. The TGI in [7] was determined as 21.7 µM; in assay [8], 30.1 µM; in assay [9] it was 34 µM; in assay [10], 32.1 µM.
For `CC(=O)[O][Hg][CH2]C1(C)COC(C)([CH2][Hg][O]C(C)=O)CO1` (centres undefined), the GI50 was 40.5 µM in [1]; 6.03 µM in assay [2]; 2.89 µM in assay [3]; 0.607 µM in [4]; 13.6 µM in assay [5]; 5.07 µM in assay [7]. Also, the results for the GI50 in [8], in [9] and in assay [10] were 19.1 µM, 13.2 µM and 17.5 µM, respectively. Further, the TGI is > 63.5 µM in assay [1]; 52.1 µM in assay [2]; 5.94 µM in assay [3]; 3.59 µM in assay [4]; 27.4 µM in assay [5]; 0.0232 µM in assay [6]. Further, the TGI in assay [7] is 9.83 µM; in assay [8], 46 µM; in assay [9], 29.3 µM; in assay [10], 31.8 µM.
